We go through three compounds from US10870647B2, “Imidazopyridine derivative, method for preparing same, and pharmaceutical composition containing same as active ingredient for preventing or treating cancer” (DAEGU-GYEONGBUK MEDICAL INNOVATION FOUNDATION, priority 2016, dated 2020).

What all share (assay): Kinase selectivity, scanMAX Kinase assay panel (DiscoverX), % control at 1 uM
Holding throughout (type): binding

For test [1], the target named is T1, scanMAX Kinase assay panel (Plasmodium falciparum, UniProt P61075).
T1 construct: purchased DiscoverX
The conditions noted are these: PFPK5 (P. falciparum); 1 uM; read-out: Percent Control (%). The method in brief: (§1)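 A single concentration of 1 uM, in DMSO, is applied across the kinase panel. Activity against an individual enzyme is assigned where % control is less than 35.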

The target of test [2] is T2, scanMAX Kinase assay panel (Homo sapiens, UniProt P53671).
T2 construct: purchased DiscoverX
As to conditions: LIMK2; 1 uM; read-out: Percent Control (%). In a few lines:
as §1

Test [3] addresses T3, scanMAX Kinase assay panel (Homo sapiens, UniProt Q9NSY1).
T3 construct: purchased DiscoverX
As to conditions: BIKE; 1 uM; read-out: Percent Control (%). The method in brief:
as §1

The target of test [4] is T4, scanMAX Kinase assay panel (Homo sapiens, UniProt P11802).
T4 construct: purchased DiscoverX
As to conditions: 1 uM, read-out: Percent Control (%). In a few lines:
as §1

Test [5] deals with T5, scanMAX Kinase assay panel (Homo sapiens, UniProt P21709).
T5 construct: purchased DiscoverX
T5 sequence (P21709 26-976): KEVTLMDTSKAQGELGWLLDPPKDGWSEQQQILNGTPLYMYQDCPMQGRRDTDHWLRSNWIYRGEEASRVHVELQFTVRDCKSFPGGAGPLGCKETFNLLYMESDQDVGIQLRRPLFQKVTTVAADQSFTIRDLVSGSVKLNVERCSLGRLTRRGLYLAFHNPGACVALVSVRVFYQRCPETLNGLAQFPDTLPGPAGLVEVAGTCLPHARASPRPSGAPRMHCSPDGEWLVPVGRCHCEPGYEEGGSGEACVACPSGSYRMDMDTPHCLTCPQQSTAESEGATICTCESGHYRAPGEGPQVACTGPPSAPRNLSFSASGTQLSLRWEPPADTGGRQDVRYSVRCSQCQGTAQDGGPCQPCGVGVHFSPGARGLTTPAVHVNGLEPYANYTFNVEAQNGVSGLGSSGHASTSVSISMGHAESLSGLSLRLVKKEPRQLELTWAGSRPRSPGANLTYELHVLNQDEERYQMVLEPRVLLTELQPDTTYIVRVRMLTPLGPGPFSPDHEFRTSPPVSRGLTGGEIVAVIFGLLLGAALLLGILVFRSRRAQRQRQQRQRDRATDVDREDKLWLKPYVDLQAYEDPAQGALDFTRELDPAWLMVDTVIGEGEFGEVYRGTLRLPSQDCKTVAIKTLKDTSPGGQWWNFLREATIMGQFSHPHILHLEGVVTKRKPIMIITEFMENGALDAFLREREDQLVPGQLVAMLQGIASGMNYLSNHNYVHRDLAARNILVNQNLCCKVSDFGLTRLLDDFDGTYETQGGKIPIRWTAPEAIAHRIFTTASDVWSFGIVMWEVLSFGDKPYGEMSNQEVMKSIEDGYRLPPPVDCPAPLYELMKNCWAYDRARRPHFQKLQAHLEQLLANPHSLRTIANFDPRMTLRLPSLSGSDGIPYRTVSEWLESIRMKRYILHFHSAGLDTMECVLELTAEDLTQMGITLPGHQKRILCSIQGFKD
The conditions noted are these: EPHA1; 1 uM; read-out: Percent Control (%). The method in brief: as §1

For test [6], the target named is T6, scanMAX Kinase assay panel (Homo sapiens, UniProt O14730).
T6 construct: purchased DiscoverX
T6 sequence (O14730 1-519): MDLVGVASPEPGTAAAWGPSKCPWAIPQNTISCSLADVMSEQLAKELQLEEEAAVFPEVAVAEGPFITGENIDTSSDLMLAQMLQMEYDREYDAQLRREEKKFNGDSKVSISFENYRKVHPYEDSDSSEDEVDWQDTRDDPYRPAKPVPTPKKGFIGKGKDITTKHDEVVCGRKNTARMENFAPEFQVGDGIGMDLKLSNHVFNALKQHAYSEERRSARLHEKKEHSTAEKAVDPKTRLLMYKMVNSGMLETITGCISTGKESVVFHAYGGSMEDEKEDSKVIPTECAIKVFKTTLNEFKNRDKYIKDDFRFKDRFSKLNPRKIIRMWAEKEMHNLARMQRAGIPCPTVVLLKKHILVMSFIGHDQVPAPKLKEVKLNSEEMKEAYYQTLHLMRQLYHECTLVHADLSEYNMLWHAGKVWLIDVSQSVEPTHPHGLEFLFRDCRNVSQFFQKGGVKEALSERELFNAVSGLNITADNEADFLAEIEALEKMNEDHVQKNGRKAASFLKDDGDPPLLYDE
The conditions noted are these: RIOK3; 1 uM; read-out: Percent Control (%). The method in brief: as §1

In test [7] the target is T7, scanMAX Kinase assay panel (Homo sapiens, UniProt Q8TBX8).
T7 construct: purchased DiscoverX
T7 sequence (Q8TBX8 1-421): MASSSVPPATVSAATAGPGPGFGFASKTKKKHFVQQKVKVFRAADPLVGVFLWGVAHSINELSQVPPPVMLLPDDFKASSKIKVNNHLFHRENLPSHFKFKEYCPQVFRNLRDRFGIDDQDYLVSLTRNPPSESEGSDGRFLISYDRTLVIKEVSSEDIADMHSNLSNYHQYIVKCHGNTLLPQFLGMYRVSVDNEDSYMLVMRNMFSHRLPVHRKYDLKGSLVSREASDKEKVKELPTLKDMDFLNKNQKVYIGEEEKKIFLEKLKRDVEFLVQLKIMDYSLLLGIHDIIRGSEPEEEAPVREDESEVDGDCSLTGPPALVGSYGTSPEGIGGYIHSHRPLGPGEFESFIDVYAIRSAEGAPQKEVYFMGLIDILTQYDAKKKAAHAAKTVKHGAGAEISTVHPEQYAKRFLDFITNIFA
The conditions noted are these: PIP5K2C; 1 uM; read-out: Percent Control (%). In a few lines: as §1

In test [8] the target is T8, scanMAX Kinase assay panel (Homo sapiens, UniProt P80192).
T8 construct: purchased DiscoverX
The conditions noted are these: MLK1; 1 uM; read-out: Percent Control (%). The method in brief: as §1

Test [9] addresses T9, scanMAX Kinase assay panel (Homo sapiens, UniProt Q8IVW4).
T9 construct: purchased DiscoverX
As to conditions: CDKL3; 1 uM; read-out: Percent Control (%). In a few lines: as §1

In test [10] the target is T10, scanMAX Kinase assay panel (Homo sapiens, UniProt P22455).
T10 construct: purchased DiscoverX
The conditions noted are these: FGFR4; 1 uM; read-out: Percent Control (%). In a few lines: as §1

SMILES strings stand for the structures. Where two headings read alike, the source gives them in different places.

T1 sequence (P61075 whole entry): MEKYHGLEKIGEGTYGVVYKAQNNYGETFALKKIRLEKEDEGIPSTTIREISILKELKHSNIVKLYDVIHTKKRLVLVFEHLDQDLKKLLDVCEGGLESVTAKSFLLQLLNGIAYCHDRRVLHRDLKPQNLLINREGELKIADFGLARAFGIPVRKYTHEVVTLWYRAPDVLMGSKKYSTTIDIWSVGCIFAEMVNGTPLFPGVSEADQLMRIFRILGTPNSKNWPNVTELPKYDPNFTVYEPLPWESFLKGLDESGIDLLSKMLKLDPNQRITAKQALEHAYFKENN
T9 sequence (Q8IVW4 whole entry): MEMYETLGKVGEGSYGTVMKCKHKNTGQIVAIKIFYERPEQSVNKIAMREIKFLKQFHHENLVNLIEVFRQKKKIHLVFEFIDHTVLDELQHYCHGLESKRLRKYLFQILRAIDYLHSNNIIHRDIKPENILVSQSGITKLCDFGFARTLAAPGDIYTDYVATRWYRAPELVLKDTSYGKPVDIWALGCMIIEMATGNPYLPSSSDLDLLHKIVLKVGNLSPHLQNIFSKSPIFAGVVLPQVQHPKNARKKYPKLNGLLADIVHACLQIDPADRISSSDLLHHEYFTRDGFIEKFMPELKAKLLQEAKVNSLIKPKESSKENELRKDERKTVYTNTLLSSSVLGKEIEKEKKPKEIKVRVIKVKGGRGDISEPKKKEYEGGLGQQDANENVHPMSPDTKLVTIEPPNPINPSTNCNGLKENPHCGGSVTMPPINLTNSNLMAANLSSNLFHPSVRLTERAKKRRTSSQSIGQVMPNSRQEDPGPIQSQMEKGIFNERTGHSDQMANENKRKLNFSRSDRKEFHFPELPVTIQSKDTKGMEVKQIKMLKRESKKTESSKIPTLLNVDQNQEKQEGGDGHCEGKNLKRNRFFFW
T4 sequence (P11802 whole entry): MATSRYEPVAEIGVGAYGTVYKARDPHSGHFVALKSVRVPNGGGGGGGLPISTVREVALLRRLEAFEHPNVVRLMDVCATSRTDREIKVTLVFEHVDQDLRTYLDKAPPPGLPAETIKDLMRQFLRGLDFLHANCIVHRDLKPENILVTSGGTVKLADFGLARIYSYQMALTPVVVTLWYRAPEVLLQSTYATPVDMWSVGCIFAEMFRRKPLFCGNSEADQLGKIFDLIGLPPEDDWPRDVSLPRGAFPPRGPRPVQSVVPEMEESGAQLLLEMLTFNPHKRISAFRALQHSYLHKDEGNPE
T3 sequence (Q9NSY1 whole entry): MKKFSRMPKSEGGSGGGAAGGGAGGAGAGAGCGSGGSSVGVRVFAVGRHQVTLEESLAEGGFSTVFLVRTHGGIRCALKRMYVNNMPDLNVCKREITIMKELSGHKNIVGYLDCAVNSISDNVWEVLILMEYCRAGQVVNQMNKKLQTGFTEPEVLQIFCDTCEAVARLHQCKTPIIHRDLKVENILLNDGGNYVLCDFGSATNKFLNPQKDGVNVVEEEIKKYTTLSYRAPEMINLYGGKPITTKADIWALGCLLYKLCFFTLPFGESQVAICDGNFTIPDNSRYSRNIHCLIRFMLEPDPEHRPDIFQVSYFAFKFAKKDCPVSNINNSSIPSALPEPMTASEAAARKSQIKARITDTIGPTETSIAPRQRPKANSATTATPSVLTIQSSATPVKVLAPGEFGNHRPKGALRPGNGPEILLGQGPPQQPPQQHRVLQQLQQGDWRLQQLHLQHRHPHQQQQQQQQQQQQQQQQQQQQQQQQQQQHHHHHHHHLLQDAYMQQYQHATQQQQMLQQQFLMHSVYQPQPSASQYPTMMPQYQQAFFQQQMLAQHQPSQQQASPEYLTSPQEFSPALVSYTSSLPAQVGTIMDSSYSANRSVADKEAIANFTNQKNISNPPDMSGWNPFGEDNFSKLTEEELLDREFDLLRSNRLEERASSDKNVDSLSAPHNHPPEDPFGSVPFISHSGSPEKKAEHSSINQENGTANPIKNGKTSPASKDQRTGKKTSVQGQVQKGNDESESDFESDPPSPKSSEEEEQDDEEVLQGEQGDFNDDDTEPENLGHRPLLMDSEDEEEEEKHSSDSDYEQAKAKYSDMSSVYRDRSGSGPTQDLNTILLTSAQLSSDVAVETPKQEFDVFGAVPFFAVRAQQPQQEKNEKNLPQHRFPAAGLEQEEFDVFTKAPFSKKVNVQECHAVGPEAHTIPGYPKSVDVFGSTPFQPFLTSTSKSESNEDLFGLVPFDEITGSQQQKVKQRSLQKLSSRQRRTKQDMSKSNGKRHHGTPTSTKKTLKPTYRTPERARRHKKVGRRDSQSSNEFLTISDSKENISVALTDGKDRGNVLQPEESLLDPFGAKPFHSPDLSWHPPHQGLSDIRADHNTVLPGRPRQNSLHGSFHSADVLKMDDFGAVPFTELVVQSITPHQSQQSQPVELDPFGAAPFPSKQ
T8 sequence (P80192 whole entry): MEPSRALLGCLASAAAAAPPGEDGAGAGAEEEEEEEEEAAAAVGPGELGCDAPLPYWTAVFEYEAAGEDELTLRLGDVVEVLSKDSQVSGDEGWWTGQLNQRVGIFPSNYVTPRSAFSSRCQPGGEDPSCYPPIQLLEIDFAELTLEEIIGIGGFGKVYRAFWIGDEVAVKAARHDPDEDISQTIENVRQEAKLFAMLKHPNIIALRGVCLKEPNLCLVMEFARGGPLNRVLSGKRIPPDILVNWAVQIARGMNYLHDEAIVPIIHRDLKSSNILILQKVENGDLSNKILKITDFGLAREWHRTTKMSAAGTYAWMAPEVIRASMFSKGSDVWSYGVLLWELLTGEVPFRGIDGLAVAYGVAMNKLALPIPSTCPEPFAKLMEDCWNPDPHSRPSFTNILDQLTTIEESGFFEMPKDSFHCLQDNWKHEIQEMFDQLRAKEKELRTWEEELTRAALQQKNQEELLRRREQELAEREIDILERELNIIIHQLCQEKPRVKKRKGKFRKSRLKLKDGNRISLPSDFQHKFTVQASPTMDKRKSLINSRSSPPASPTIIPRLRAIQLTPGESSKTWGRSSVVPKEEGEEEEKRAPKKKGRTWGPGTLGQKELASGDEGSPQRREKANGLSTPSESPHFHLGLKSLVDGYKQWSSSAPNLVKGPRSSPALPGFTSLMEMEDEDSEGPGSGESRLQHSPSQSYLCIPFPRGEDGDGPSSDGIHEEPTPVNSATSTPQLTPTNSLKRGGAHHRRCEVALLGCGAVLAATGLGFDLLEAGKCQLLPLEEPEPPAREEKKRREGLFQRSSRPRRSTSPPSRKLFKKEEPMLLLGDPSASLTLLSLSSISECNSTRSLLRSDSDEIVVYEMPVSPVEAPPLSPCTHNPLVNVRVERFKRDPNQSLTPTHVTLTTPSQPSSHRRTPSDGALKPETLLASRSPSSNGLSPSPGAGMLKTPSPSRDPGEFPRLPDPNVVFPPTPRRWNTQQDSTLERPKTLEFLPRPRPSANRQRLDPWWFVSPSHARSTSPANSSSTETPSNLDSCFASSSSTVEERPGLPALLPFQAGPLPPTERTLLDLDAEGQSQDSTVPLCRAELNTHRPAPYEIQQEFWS
T2 sequence (P53671 whole entry): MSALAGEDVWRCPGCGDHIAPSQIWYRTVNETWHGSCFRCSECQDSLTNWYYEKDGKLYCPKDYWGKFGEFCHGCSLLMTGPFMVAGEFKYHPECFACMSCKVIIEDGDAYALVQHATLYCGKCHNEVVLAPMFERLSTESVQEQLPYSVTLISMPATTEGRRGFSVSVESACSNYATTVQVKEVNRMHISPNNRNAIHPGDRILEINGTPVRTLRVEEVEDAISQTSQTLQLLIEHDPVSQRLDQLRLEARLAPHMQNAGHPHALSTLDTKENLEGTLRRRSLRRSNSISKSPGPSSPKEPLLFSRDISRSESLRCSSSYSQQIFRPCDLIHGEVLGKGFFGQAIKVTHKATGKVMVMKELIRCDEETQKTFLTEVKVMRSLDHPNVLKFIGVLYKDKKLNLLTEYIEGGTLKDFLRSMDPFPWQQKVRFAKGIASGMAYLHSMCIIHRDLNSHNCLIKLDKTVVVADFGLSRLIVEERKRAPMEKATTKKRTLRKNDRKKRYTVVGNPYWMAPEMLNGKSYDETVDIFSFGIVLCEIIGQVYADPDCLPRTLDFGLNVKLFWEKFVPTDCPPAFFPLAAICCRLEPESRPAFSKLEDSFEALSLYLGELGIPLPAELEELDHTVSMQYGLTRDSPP
T10 sequence (P22455 22-802): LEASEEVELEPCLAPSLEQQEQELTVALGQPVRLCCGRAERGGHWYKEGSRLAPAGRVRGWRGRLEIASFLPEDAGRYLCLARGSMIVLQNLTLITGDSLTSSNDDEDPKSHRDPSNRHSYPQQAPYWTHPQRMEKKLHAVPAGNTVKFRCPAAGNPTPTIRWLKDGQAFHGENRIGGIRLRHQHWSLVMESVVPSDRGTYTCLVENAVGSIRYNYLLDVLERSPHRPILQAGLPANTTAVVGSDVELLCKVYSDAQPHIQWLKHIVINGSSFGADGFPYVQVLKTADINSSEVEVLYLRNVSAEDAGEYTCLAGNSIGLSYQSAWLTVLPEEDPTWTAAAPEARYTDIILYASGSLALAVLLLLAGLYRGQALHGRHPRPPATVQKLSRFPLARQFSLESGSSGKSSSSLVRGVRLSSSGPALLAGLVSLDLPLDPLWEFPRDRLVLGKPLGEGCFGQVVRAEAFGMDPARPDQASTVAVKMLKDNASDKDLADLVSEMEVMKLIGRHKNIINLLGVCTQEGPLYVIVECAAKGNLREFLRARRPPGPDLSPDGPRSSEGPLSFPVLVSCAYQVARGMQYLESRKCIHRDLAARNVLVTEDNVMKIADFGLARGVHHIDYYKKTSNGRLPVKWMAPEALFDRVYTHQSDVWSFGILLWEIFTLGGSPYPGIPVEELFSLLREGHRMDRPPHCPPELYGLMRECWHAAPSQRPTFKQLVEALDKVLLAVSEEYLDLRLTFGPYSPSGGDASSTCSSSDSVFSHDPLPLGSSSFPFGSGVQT

As to `Cc1ccc(C(=O)Nc2ccc(CN3CCN(C)CC3)c(C(F)(F)F)c2)cc1C#Cc1cnc2c(Nc3cnn(C)c3)cccn12` [Example 1, 4-methyl-3-((8-((1-methyl-1H-pyrazol-4-yl)amino)imidazo[1,2-a]pyridin-3-yl)ethynyl)-N-(4-((4-methylpiperazin-1-yl)methyl)-3-(trifluoromethyl)phenyl)benzamide], the remaining binding at 1 µM in test [1] came to 87%; in test [2], 3%; in test [3], 81%; in [4] (CDK4-cyclinD1) it was 84%; in [4] (CDK4-cyclinD3) it was 78%; in test [4] (CDK4) it was 83%. Also, the remaining binding at 1 µM came out at 2% in [5]; 94% in test [6]; 97% in test [7]; 3% in [8]; 1% in test [9]; 0% in test [10].
Take `Cc1cn(-c2cc(NC(=O)c3ccc(C)c(C#Cc4cnc5c(Nc6cnn(C)c6)cccn45)c3)cc(C(F)(F)F)c2)cn1` [Example 12, 4-methyl-N-(3-(4-methyl-1H-imidazol-1-yl)-5-(trifluoromethyl)phenyl)-3-((8-((1-methyl-1H-pyrazol-4-yl)amino)imidazo[1,2-a]pyridin-3-yl)ethynyl)benzamide]: the remaining binding at 1 µM came to 100% in [1]; 50% in test [2]; 85% in test [3]; 100% in test [4] (CDK4-cyclinD1); 100% in test [4] (CDK4-cyclinD3); 100% in [4] (CDK4). The remaining binding at 1 µM in [5] is 8%; in [6] it was 96%; in test [7], 73%; in test [8] it was 35%; in [9], 53%; in [10], 32%.
For the compound `Cc1ccc(NC(=O)C2(C(=O)Nc3ccc(F)cc3)CC2)cc1C#Cc1cnc2c(Nc3cnn(C(C)C)c3)cccn12` [Example 78], the remaining binding at 1 µM in test [1] was determined as 93%; in test [2], 100%; in test [3], 100%; in test [4] (CDK4-cyclinD1), 100%; in test [4] (CDK4-cyclinD3), 100%; in test [4] (CDK4) it was 100%. Further, the remaining binding at 1 µM in [5] stood at 69%; in [6], 95%; in test [7], 95%; in test [8] it was 100%; in test [9], 100%; in test [10], 100%.
